According to PubChem BioAssay (NCI):
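96-well plates; 48 h exposure; 5 concentrations. Endpoints by linear interpolation between flanking doses. Not reached: highest tested concentration assigned. GI50 = concentration required for 50% inhibition of growth. The concentration for full growth arrest is given as TGI.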

Tests used:
Assay in all cases: NCI tumour cell line growth inhibition, 48 h
NCI-H226 lung = tested on: NCI-H226 lung
EKVX NSCLC = tested on: EKVX NSCLC
SN12C renal = tested on: SN12C renal
SNB-19 CNS = tested on: SNB-19 CNS
MDA-MB-435 = tested on: MDA-MB-435
OVCAR-5 ovarian = tested on: OVCAR-5 ovarian
SF-295 CNS = tested on: SF-295 CNS
HOP-92 NSCLC = tested on: HOP-92 NSCLC
NCI-H522 lung = tested on: NCI-H522 lung
MALME-3M melanoma = tested on: MALME-3M melanoma
U251 CNS = tested on: U251 CNS
DU-145 prostate = tested on: DU-145 prostate
HT29 colon = tested on: HT29 colon
MDA-MB-231 breast = tested on: MDA-MB-231 breast
UACC-62 melanoma = tested on: UACC-62 melanoma
CAKI-1 renal = tested on: CAKI-1 renal
NCI-H23 lung = tested on: NCI-H23 lung
A498 renal = tested on: A498 renal
UO-31 renal = tested on: UO-31 renal
MCF7 breast = tested on: MCF7 breast
SNB-75 CNS = tested on: SNB-75 CNS
HL-60(TB) leukemia = tested on: HL-60(TB) leukemia
UACC-257 melanoma = tested on: UACC-257 melanoma
COLO 205 colon = tested on: COLO 205 colon
SW-620 colon = tested on: SW-620 colon
OVCAR-3 ovarian = tested on: OVCAR-3 ovarian
SF-539 CNS = tested on: SF-539 CNS
SK-OV-3 ovarian = tested on: SK-OV-3 ovarian
HS 578T breast = tested on: HS 578T breast
A549 NSCLC = tested on: A549 NSCLC
SR leukemia = tested on: SR leukemia
OVCAR-8 ovarian = tested on: OVCAR-8 ovarian
HCT-116 colon = tested on: HCT-116 colon
NCI-H460 lung = tested on: NCI-H460 lung
LOX IMVI melanoma = tested on: LOX IMVI melanoma
BT-549 breast = tested on: BT-549 breast
SF-268 CNS = tested on: SF-268 CNS
M14 melanoma = tested on: M14 melanoma
RPMI-8226 leukemia = tested on: RPMI-8226 leukemia
MOLT-4 leukemia = tested on: MOLT-4 leukemia
OVCAR-4 ovarian = tested on: OVCAR-4 ovarian
SK-MEL-28 melanoma = tested on: SK-MEL-28 melanoma
786-0 renal = tested on: 786-0 renal
HOP-62 NSCLC = tested on: HOP-62 NSCLC
K-562 leukemia = tested on: K-562 leukemia
SK-MEL-2 melanoma = tested on: SK-MEL-2 melanoma
ACHN renal = tested on: ACHN renal
T-47D breast = tested on: T-47D breast
HCC-2998 colon = tested on: HCC-2998 colon
NCI/ADR-RES ovarian = tested on: NCI/ADR-RES ovarian
KM12 colon = tested on: KM12 colon
IGROV1 ovarian = tested on: IGROV1 ovarian
CCRF-CEM leukemia = tested on: CCRF-CEM leukemia
RXF 393 renal = tested on: RXF 393 renal
SK-MEL-5 melanoma = tested on: SK-MEL-5 melanoma
PC-3 prostate = tested on: PC-3 prostate
TK-10 renal = tested on: TK-10 renal
HCT-15 colon = tested on: HCT-15 colon

Structure (SMILES): O=C(NNc1nc2cc(F)cc(F)c2n2cccc12)c1ncccn1
- GI50 (NCI-H226 lung): 585 nM
- TGI (NCI-H226 lung): 6.67 µM
- GI50 (EKVX NSCLC): 409 nM
- TGI (EKVX NSCLC): 8.71 µM
- GI50 (SN12C renal): 1200 nM
- TGI (SN12C renal): > 30 µM
- GI50 (SNB-19 CNS): 688 nM
- TGI (SNB-19 CNS): > 30 µM
- GI50 (MDA-MB-435): 1240 nM
- TGI (MDA-MB-435): > 30 µM
- GI50 (OVCAR-5 ovarian): 1180 nM
- TGI (OVCAR-5 ovarian): > 30 µM
- GI50 (SF-295 CNS): 176 nM
- TGI (SF-295 CNS): 4.99 µM
- GI50 (HOP-92 NSCLC): 1240 nM
- TGI (HOP-92 NSCLC): 20.7 µM
- GI50 (NCI-H522 lung): 1030 nM
- TGI (NCI-H522 lung): > 17 µM
- GI50 (MALME-3M melanoma): 1050 nM
- TGI (MALME-3M melanoma): 19.6 µM
- GI50 (U251 CNS): 282 nM
- TGI (U251 CNS): > 19.1 µM
- GI50 (DU-145 prostate): 751 nM
- TGI (DU-145 prostate): > 30 µM
- GI50 (HT29 colon): 940 nM
- TGI (HT29 colon): > 30 µM
- GI50 (MDA-MB-231 breast): 1220 nM
- TGI (MDA-MB-231 breast): > 25.3 µM
- GI50 (UACC-62 melanoma): 377 nM
- TGI (UACC-62 melanoma): > 9.21 µM
- GI50 (CAKI-1 renal): 336 nM
- TGI (CAKI-1 renal): 9.5 µM
- GI50 (NCI-H23 lung): 1350 nM
- TGI (NCI-H23 lung): > 30 µM
- GI50 (A498 renal): 1200 nM
- TGI (A498 renal): 5.85 µM
- GI50 (UO-31 renal): 116 nM
- TGI (UO-31 renal): 3.67 µM
- GI50 (MCF7 breast): 862 nM
- TGI (MCF7 breast): 10.7 µM
- GI50 (SNB-75 CNS): 793 nM
- TGI (SNB-75 CNS): > 27.6 µM
- GI50 (HL-60(TB) leukemia): 803 nM
- TGI (HL-60(TB) leukemia): 5.07 µM
- GI50 (UACC-257 melanoma): 1180 nM
- TGI (UACC-257 melanoma): 15.7 µM
- GI50 (COLO 205 colon): 773 nM
- TGI (COLO 205 colon): > 30 µM
- GI50 (SW-620 colon): 1010 nM
- TGI (SW-620 colon): > 30 µM
- GI50 (OVCAR-3 ovarian): 730 nM
- TGI (OVCAR-3 ovarian): > 30 µM
- GI50 (SF-539 CNS): 728 nM
- TGI (SF-539 CNS): > 16.6 µM
- GI50 (SK-OV-3 ovarian): 443 nM
- TGI (SK-OV-3 ovarian): 9.81 µM
- GI50 (HS 578T breast): 3.18 µM
- TGI (HS 578T breast): > 28.6 µM
- GI50 (A549 NSCLC): 437 nM
- TGI (A549 NSCLC): 8.67 µM
- GI50 (SR leukemia): 221 nM
- TGI (SR leukemia): > 30 µM
- GI50 (OVCAR-8 ovarian): 509 nM
- TGI (OVCAR-8 ovarian): > 30 µM
- GI50 (HCT-116 colon): 341 nM
- TGI (HCT-116 colon): > 21.1 µM
- GI50 (NCI-H460 lung): 212 nM
- TGI (NCI-H460 lung): 3.9 µM
- GI50 (LOX IMVI melanoma): 487 nM
- TGI (LOX IMVI melanoma): 15.8 µM
- GI50 (BT-549 breast): 1040 nM
- TGI (BT-549 breast): 17 µM
- GI50 (SF-268 CNS): 521 nM
- TGI (SF-268 CNS): > 30 µM
- GI50 (M14 melanoma): 390 nM
- TGI (M14 melanoma): 5.62 µM
- GI50 (RPMI-8226 leukemia): 1180 nM
- TGI (RPMI-8226 leukemia): > 30 µM
- GI50 (MOLT-4 leukemia): 613 nM
- TGI (MOLT-4 leukemia): > 30 µM
- GI50 (OVCAR-4 ovarian): 801 nM
- TGI (OVCAR-4 ovarian): > 23.7 µM
- GI50 (SK-MEL-28 melanoma): 682 nM
- TGI (SK-MEL-28 melanoma): > 30 µM
- GI50 (786-0 renal): 901 nM
- TGI (786-0 renal): > 14.8 µM
- GI50 (HOP-62 NSCLC): 226 nM
- TGI (HOP-62 NSCLC): 22.4 µM
- GI50 (K-562 leukemia): 1000 nM
- TGI (K-562 leukemia): > 30 µM
- GI50 (SK-MEL-2 melanoma): 2950 nM
- TGI (SK-MEL-2 melanoma): 30 µM
- GI50 (ACHN renal): 164 nM
- TGI (ACHN renal): 3.83 µM
- GI50 (T-47D breast): 1060 nM
- TGI (T-47D breast): 22.7 µM
- GI50 (HCC-2998 colon): 863 nM
- TGI (HCC-2998 colon): > 30 µM
- GI50 (NCI/ADR-RES ovarian): 218 nM
- TGI (NCI/ADR-RES ovarian): 10.3 µM
- GI50 (KM12 colon): 537 nM
- TGI (KM12 colon): > 30 µM
- GI50 (IGROV1 ovarian): 420 nM
- TGI (IGROV1 ovarian): 22.4 µM
- GI50 (CCRF-CEM leukemia): 327 nM
- TGI (CCRF-CEM leukemia): > 30 µM
- GI50 (RXF 393 renal): 1310 nM
- TGI (RXF 393 renal): 5.64 µM
- GI50 (SK-MEL-5 melanoma): 584 nM
- TGI (SK-MEL-5 melanoma): 2860 nM
- GI50 (PC-3 prostate): 786 nM
- TGI (PC-3 prostate): > 26.8 µM
- GI50 (TK-10 renal): 427 nM
- TGI (TK-10 renal): 8.02 µM
- GI50 (HCT-15 colon): 121 nM
- TGI (HCT-15 colon): 6.21 µM
